Data on 6 molecules can be found in article PMC3333808 (Cell Reports, 2012).

Series [1] concerns the target T1, SecYEG (Escherichia coli, UniProt P0AG96+P0AG99+P0AGA2).
T1 sequence (P0AGA2 1-443): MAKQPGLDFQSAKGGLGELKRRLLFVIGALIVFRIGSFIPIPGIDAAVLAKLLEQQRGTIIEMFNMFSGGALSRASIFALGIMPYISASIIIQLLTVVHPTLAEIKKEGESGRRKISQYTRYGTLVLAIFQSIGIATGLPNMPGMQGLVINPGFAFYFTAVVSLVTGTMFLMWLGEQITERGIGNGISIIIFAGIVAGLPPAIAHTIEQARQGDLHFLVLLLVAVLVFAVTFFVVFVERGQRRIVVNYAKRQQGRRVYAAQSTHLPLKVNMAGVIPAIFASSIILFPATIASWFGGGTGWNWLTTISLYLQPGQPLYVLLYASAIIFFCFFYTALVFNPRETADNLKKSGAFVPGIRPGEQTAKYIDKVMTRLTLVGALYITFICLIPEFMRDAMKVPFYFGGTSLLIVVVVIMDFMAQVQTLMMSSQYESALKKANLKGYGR
T1 sequence (P0AG96 1-127 partner): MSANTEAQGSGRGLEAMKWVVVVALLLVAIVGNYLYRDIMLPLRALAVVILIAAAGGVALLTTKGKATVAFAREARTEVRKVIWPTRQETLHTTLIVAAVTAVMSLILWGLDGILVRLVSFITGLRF
T1 sequence (P0AG99 1-110 partner): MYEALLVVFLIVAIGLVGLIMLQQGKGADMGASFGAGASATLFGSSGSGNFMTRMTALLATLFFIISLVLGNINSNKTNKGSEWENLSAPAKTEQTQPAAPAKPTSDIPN
Format: binding. The conditions noted are these: 1.65 μM SecYEG, 3.2 mg/ml E. coli polar lipids, 10 μM peptide; reisolated by centrifugation; SDS-PAGE, silver staining; Figure 1D.

The target in series [2] is T1, SecYEG. The experiment in a line: Translocation of OmpA into vesicles coreconstituted with SecYEG and peptide. It counts as biochemical. The conditions noted are these: vesicles reisolated from excess unbound peptide; western blot; n = 8; Figure 1E.
The test system of series [3] is SecYEG. The conditions noted are these: membranes containing SecYEG; ref Simon and Blobel, 1992; cited from earlier work.
The subject of series [4] is SecA. The conditions noted are these: synthetic LamB signal peptide; ref Gelis et al., 2007; cited from earlier work.
In series [5] the test system is trypsin. Put plainly: Resistance of peptide in SecYEG 2D crystals to trypsin. It counts as in vitro ADME. The conditions noted are these: 1:100 (w/w) trypsin, 20 min, room temperature; Coomassie-stained SDS-PAGE; Figure 1F.
Series [6] concerns the target T1, SecYEG. The experiment in a line: SecA/ATP-driven translocation of preprotein proOmpA into SecYEG proteoliposomes. It counts as biochemical. The conditions noted are these: proteoliposomes containing SecYEG; 0.7 μM proOmpA; 25°C, pH 7.5; proteinase K protection, western blot; Figures 1A and 1B.
The subject of series [7] is SecYEG. The conditions noted are these: dimer vs monomer; ref Deville et al., 2011; cited from earlier work.
The target of series [8] is T2, SecYEG complex (E. coli, UniProt P0AGA2 1-443; P0AG96 1-127; P0AG99 1-110).
T2 sequence (looked up) 1: T1 sequence (P0AGA2 1-443)
T2 sequence (looked up) 2: T1 sequence (P0AG96 1-127 partner)
T2 sequence (looked up) 3: T1 sequence (P0AG99 1-110 partner)
Put plainly: cryo-EM structure.

In series [9] the target is T2, SecYEG complex. The experiment in a line: co-sedimentation.

As for “MMITLRKLP-(ΔLAVA)-VAAGVMSAQAYA-VDFHGYARSGIGWTG [SSΔ4-β1]”, the “peptide retained following coreconstitution with SecYEG” value in series [1] was “but not SSΔ4-β1, were retained following coreconstitution with SecYEG”.

As to MMITLRKLPLAVAVAAGVMSAQAYA [SS], the “translocation of OmpA after coreconstitution of SecYEG with peptide” value in [2] is on record as “permitted the translocation of OmpA”. The “peptide retained following coreconstitution with SecYEG” value in [1] is reported as “retained following coreconstitution with SecYEG”. In [3], the channel opening entry is recorded as “opens channels in membranes containing SecYEG”. Further, the “effect of association with SecA on protein translocation” value in series [4] is listed as “competitive inhibition of protein translocation”.

For “MMITLRKLPLAVAVAAGVMSAQAYA-VDFHGYARSGIGWTG [SS-β1]”, the “resistance to proteolysis by trypsin in SecYEG 2D crystals” value in [5] is given as “resistance to proteolysis”. The “translocation of OmpA after coreconstitution of SecYEG with peptide” value in series [2] was “permitted the translocation of OmpA”. The “peptide retained following coreconstitution with SecYEG” value in series [1] was “retained following coreconstitution with SecYEG”. Further, the “inhibition of SecA/ATP-driven translocation of proOmpA” value in series [6] was “quantitatively inhibits”.

In the case of “SecA: ATPase that associates peripherally with the protein-channel complex SecYEG”, the “affinity of SecA for the SecYEG dimer over the monomer” value in [7] was 10 fold.

B1: LamB signal sequence plus the first β strand peptide (SS-β1) (peptide)
peptide: MMITLRKLPLAVAVAAGVMSAQAYAVDFHGYARSGIGWTG
Regarding B1, the “stoichiometry N” value in series [8] is 1 substrate per SecYEG dimer.

B2: LamB signal sequence peptide (SS) (peptide)
peptide: MMITLRKLPLAVAVAAGVMSAQAYA
In the case of B2, the binding result in [9] was “binds”.
